One test deals with (UniProt D5GU71). Put plainly: βGUS. Format: biochemical, uncultured bacterium.
In the next test the test system is H11G11-BG βGUS. Description: βGUS. The note with it: for efficacy: 0.5 nM GUS, 100 μM 4MUG, 1 hr at room temperature, negative = inhibition; for curve class (CC): dose-response curve class. The format is biochemical, uncultured bacterium.

(UniProt D5GU71), sequence (D5GU71 1-754): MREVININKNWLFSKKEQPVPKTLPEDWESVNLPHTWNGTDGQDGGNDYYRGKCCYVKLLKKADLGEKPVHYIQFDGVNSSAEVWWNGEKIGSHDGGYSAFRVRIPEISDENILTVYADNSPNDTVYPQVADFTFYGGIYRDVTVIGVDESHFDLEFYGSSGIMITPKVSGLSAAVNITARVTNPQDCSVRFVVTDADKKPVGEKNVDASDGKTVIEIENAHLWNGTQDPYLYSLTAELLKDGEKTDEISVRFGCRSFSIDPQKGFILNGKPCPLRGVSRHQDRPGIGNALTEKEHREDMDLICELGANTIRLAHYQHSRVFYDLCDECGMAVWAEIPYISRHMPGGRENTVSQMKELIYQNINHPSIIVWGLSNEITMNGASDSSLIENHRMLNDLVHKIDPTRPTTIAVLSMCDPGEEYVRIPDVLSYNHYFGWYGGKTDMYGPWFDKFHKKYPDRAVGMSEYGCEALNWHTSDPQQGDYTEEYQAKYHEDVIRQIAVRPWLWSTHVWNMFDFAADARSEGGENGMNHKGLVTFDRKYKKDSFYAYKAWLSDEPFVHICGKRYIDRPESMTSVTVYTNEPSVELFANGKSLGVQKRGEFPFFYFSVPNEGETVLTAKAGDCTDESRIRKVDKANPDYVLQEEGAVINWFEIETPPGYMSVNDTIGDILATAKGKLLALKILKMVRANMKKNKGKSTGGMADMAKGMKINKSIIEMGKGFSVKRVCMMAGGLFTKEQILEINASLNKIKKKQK

For `O=C(Nc1cccc(-c2nc3ncccc3o2)c1)c1ccc(-c2cccc(Cl)c2Cl)o1` [NCGC00099510, 5-(2,3-dichlorophenyl)-N-(3-(oxazolo[4,5-b]pyridine-2-yl)phenyl)furan-2-carboxamide], the IC50 at (UniProt D5GU71) is 9.6 µM. In the test on H11G11-BG βGUS, the efficacy is reported as −70% and the “curve class (CC)” value was −1.2.
In the case of `c1ccc(Nc2cc3c(cn2)CN(CC2CC2)CCN3)cc1` [NCGC00411059, 4-(cyclopropylmethyl)-N-phenyl-2,3,4,5-tetrahydro-1H-pyrido[4,3-e][1,4]diazepin-8-amine], in the test with H11G11-BG βGUS, the efficacy was −72% and the “curve class (CC)” value is given as −2.2.

For the origin of these results see article PMC9853918 (Journal of chemical information and modeling, 2022).
